Results from patent US9949483B2, “Pesticidally active heterocyclic derivatives with sulphur containing substituents” (Syngenta Participations AG, priority 2014, dated 2018).

What was measured:
Format in all cases: in vivo
[1] = tested on: Bemisia tabaci (Cotton White Fly); assay: Example B1: Activity against Bemisia tabaci, cotton leaf discs sprayed; details: foliar, 144 h, application rate of 200 ppm, adult white flies, 6 days after incubation
Experimental: Cotton leaf discs were placed on agar in 24-well microtiter plates and sprayed with aqueous test solutions prepared from 10′000 ppm DMSO stock solutions. After drying the leaf discs were infested with adult white flies. The samples were checked for mortality 6 days after incubation.

[2] = tested on: Diabrotica balteata (Corn Root Worm); assay: Example B2: Activity against Diabrotica balteata, maize sprouts sprayed; details: 96 h, application rate of 200 ppm, L2 larvae, 4 days after infestation
Experimental: Maize sprouts, placed on an agar layer in 24-well microtiter plates were treated with aqueous test solutions prepared from 10′000 ppm DMSO stock solutions by spraying. After drying, the plates were infested with L2 larvae (6 to 10 per well). The samples were assessed for mortality 4 days after infestation.

[3] = tested on: Euschistus heros (Neotropical Brown Stink Bug); assay: Example B3: Activity against Euschistus heros, soybean leaf sprayed; details: 120 h, application rate of 200 ppm, N-2 nymphs, 5 days after infestation, read-out: effect in at least one of the two categories (mortality or growth inhibition)
Experimental: Soybean leaf on agar in 24-well microtiter plates were sprayed with aqueous test solutions prepared from 10′000 ppm DMSO stock solutions. After drying the leaf were infested with N-2 nymphs. The samples were assessed for growth inhibition in comparison to untreated samples 5 days after infestation.

[4] = tested on: Mysus persicae (Green Peach Aphid); assay: Example B4: Activity against Mysus persicae, sunflower leaf discs sprayed; details: Myzus persicae, foliar, 144 h, application rate of 200 ppm, aphid population of mixed ages, 6 days after infestation
Experimental: (§1) Sunflower leaf discs were placed on agar in a 24-well microtiter plate and sprayed with aqueous test solutions prepared from 10′000 ppm DMSO stock solutions. After drying, the leaf discs were infested with an aphid population of mixed ages. The samples were assessed for mortality 6 days after infestation.

[5] = tested on: Mysus persicae (Green Peach Aphid); assay: Example B6: Activity against Mysus persicae, sucrose solution under Parafilm; details: Myzus persicae, 120 h; test rate of 12 ppm; mixed with sucrose solution; 5 days after infestation
Experimental: Test compounds from 10′000 ppm DMSO stock solutions were applied by pipette into 24-well microtiter plates and mixed with sucrose solution. The plates were closed with a stretched Parafilm. A plastic stencil with 24 holes was placed onto the plate and infested pea seedlings were placed directly on the Parafilm. The infested plate was closed with a gel blotting paper and another plastic stencil and then turned upside down. The samples were assessed for mortality 5 days after infestation.

[6] = tested on: Plutella xylostella (Diamond Back Moth); assay: Example B7: Activity against Plutella xylostella, artificial diet; details: 120 h, application rate of 200 ppm, L2 larvae, 5 days after infestation, read-out: effect in at least one of the two categories (mortality or growth inhibition)
Experimental: 24-well microtiter plates with artificial diet were treated with aqueous test solutions prepared from 10′000 ppm DMSO stock solutions by pipetting. After drying, the plates were infested with L2 larvae (10 to 15 per well). The samples were assessed for mortality and growth inhibition in comparison to untreated samples 5 days after infestation.

[7] = tested on: Spodoptera littoralis (Egyptian Cotton Leaf Worm); assay: Example B8: Activity against Spodoptera littoralis, cotton leaf discs sprayed; details: foliar, 72 h, application rate of 200 ppm, L1 larvae, 3 days after infestation, read-out: control (at least one of mortality, anti-feedant effect, and growth inhibition)
Experimental: Cotton leaf discs were placed on agar in 24-well microtiter plates and sprayed with aqueous test solutions prepared from 10′000 ppm DMSO stock solutions. After drying the leaf discs were infested with five L1 larvae. The samples were assessed for mortality, anti-feedant effect, and growth inhibition in comparison to untreated samples 3 days after infestation. Control of Spodoptera littoralis by a test sample is when at least one of mortality, anti-feedant effect, and growth inhibition is higher than the untreated sample.

[8] = tested on: Spodoptera littoralis (Egyptian Cotton Leaf Worm); assay: Example B9: Activity against Spodoptera littoralis, lettuce grown on treated agar; details: 144 h, test rate of 12.5 ppm, compound mixed with agar, taken up by lettuce roots, 6 days after infestation, read-out: effect in at least one of the three categories (mortality, anti-feedancy, or growth inhibition)
Text: Test compounds were applied by pipette from 10′000 ppm DMSO stock solutions into 24-well plates and mixed with agar. Lettuce seeds were placed on the agar and the multi well plate was closed by another plate which contains also agar. After 7 days the roots have absorbed the compound and the lettuce has grown into the lid plate. The lettuce leafs were now cut off into the lid plate. Spodoptera eggs were pipetted through a plastic stencil on a humid gel blotting paper and the plate closed with it. The samples were assessed for mortality, anti-feedant effect and growth inhibition in comparison to untreated samples 6 days after infestation.

[9] = tested on: Tetranychus urticae (Two-Spotted Spider Mite); assay: Example B10: Activity against Tetranychus urticae, feeding/contact activity; details: 192 h
Experimental: Bean leaf discs on agar in 24-well microtiter plates were sprayed with aqueous test solutions prepared from 10′000 ppm DMSO stock solutions. After drying the leaf discs were infested with a mite population of mixed ages. The samples were assessed for mortality on mixed population (mobile stages) 8 days after infestation.

[10] = tested on: Aedes aegypti (Yellow Fever Mosquito); assay: whole plant or invertebrate; details: 48 h, test rate of 5 ppm, L2 larvae, incubation period of 2 days, read-out: effect in at least one of the two categories (mortality or growth inhibition)
Experimental: 10 to 15 Aedes larvae (L2) together with a nutrition mixture were placed in 96-well microtiter plates. Test compounds were pipetted into the wells. After an incubation period of 2 days insects were assessed for mortality and growth inhibition.

[11] = tested on: Mysus persicae (Green Peach Aphid); assay: Example B5: Activity against Mysus persicae, roots of pea seedlings in test solutions; details: Myzus persicae, 144 h, test rate of 24 ppm, 6 days
Experimental: Roots of pea seedlings infested with an aphid population of mixed ages were placed directly in the aqueous test solutions prepared from 10′000 DMSO stock solutions. The samples were assessed for mortality 6 days after placing seedlings in test solutions.

[12] = tested on: Thrips tabaci (Onion Thrips); assay: Example B11: Activity against Thrips tabaci, feeding/contact activity; details: 144 h, application rate of 200 ppm, thrips population of mixed ages, 6 days after infestation
Experimental: as §1, with “in” for “in a”, “plates” for “plate”, “drying” for “drying,”, “a thrips” for “an aphid”

CCSc1ccccc1-n1cc2cnc(C(F)(F)F)cc2n1 [Compound P1, 2-(2-ethylsulfanylphenyl)-6-(trifluoromethyl)pyrazolo[4,3-c]pyridine]
≥ 80%: mortality at 200 ppm [1] | mortality at 200 ppm [2] | percent effect (mortality or growth inhibition) at 200 ppm [3] | mortality at 200 ppm [4] | mortality at 12 ppm [5] | percent effect (mortality or growth inhibition) at 200 ppm [6] | mortality at 200 ppm [7] | percent control (mortality, anti-feedancy or growth inhibition) at 12.5 ppm [8] | mortality at 200 ppm [9] | percent effect (mortality or growth inhibition) at 5 ppm [10]

CCS(=O)(=O)c1ccccc1-n1cc2cnc(C(F)(F)F)cc2n1 [Compound P2, 2-(2-ethylsulfonylphenyl)-6-(trifluoromethyl)pyrazolo[4,3-c]pyridine]
≥ 80%: mortality at 200 ppm [1] | mortality at 200 ppm [2] | mortality at 200 ppm [4] | mortality at 24 ppm [11] | percent effect (mortality or growth inhibition) at 200 ppm [6] | mortality at 200 ppm [7]

CCSc1cccnc1-n1cc2cnc(C(F)(F)F)cc2n1 [Compound P3, 2-(3-ethylsulfanyl-2-pyridyl)-6-(trifluoromethyl)pyrazolo[4,3-c]pyridine]
≥ 80%: mortality at 200 ppm [2] | percent effect (mortality or growth inhibition) at 200 ppm [3] | mortality at 200 ppm [4] | mortality at 12 ppm [5] | percent effect (mortality or growth inhibition) at 200 ppm [6] | mortality at 200 ppm [7] | percent control (mortality, anti-feedancy or growth inhibition) at 12.5 ppm [8]

CCS(=O)(=O)c1cccnc1-n1cc2cnc(C(F)(F)F)cc2n1 [Compound P4, 2-(3-ethylsulfonyl-2-pyridyl)-6-(trifluoromethyl)pyrazolo[4,3-c]pyridine]
≥ 80%: mortality at 200 ppm [2] | percent effect (mortality or growth inhibition) at 200 ppm [3] | mortality at 200 ppm [4] | mortality at 24 ppm [11] | percent effect (mortality or growth inhibition) at 200 ppm [6] | mortality at 200 ppm [7] | percent control (mortality, anti-feedancy or growth inhibition) at 12.5 ppm [8]

CCS(=O)(=O)c1cccnc1-n1cc2cnc(Br)cc2n1 [Compound P6, 6-bromo-2-(3-ethylsulfonyl-2-pyridyl)pyrazolo[4,3-c]pyridine]
≥ 80%: mortality at 200 ppm [2] | mortality at 200 ppm [4]

CCS(=O)(=O)c1cc(C(F)(F)F)cnc1-n1cc2cnc(C(F)(F)F)cc2n1 [Compound P7, 2-[3-ethylsulfonyl-5-(trifluoromethyl)-2-pyridyl]-6-(trifluoromethyl)pyrazolo[4,3-c]pyridine]
≥ 80%: mortality at 200 ppm [2] | percent effect (mortality or growth inhibition) at 200 ppm [3] | mortality at 200 ppm [4] | percent effect (mortality or growth inhibition) at 200 ppm [6] | mortality at 200 ppm [7] | percent control (mortality, anti-feedancy or growth inhibition) at 12.5 ppm [8] | percent effect (mortality or growth inhibition) at 5 ppm [10]

CCS(=O)(=O)c1cc(Br)cnc1-n1cc2cnc(C(F)(F)F)cc2n1 [Compound P8, 2-(5-bromo-3-ethylsulfonyl-2-pyridyl)-6-(trifluoromethyl)pyrazolo[4,3-c]pyridine]
≥ 80%: mortality at 200 ppm [2] | percent effect (mortality or growth inhibition) at 200 ppm [3] | mortality at 200 ppm [4] | percent effect (mortality or growth inhibition) at 200 ppm [6] | mortality at 200 ppm [7]

CCS(=O)(=O)c1cc(C2CC2)cnc1-n1cc2cnc(C(F)(F)F)cc2n1 [Compound P9, 2-(5-cyclopropyl-3-ethylsulfonyl-2-pyridyl)-6-(trifluoromethyl)pyrazolo[4,3-c]pyridine]
≥ 80%: mortality at 200 ppm [2] | mortality at 200 ppm [7]

CCS(=O)(=O)c1cc(-c2ccccc2)cnc1-n1cc2cnc(C(F)(F)F)cc2n1 [Compound P10, 2-(3-ethylsulfonyl-5-phenyl-2-pyridyl)-6-(trifluoromethyl)pyrazolo[4,3-c]pyridine]
≥ 80%: mortality at 200 ppm [2] | percent effect (mortality or growth inhibition) at 200 ppm [3] | mortality at 200 ppm [4] | percent effect (mortality or growth inhibition) at 200 ppm [6] | mortality at 200 ppm [7] | mortality at 200 ppm [12]

CCS(=O)(=O)c1cccnc1-n1cc2nnc(C(F)(F)F)cc2n1 [PP1, 2-(3-ethylsulfonyl-2-pyridyl)-6-(trifluoromethyl)pyrazolo[4,3-c]pyridazine]
≥ 80%: mortality at 200 ppm [2] | percent effect (mortality or growth inhibition) at 200 ppm [3] | mortality at 200 ppm [4] | percent effect (mortality or growth inhibition) at 200 ppm [6] | mortality at 200 ppm [7]
